Reference: patent US20200308546A1, “ENGINEERED CARDIOMYOCYTES AND USES THREOF” (THE J. DAVID GLADSTONE INSTITUTES, A TESTAMENTARY TRUST …, priority 2016, published 2020)

Legend:
iWT cardiomyocytes = assay: Traction force microscopy of paced engineered cardiomyocytes (force generation, beat rate), iWT; format: cell-based, human; conditions: wild-type cells, FIGS. 93-95
From the text: FIG. 93 is a set of graphs showing force generation of engineered cardiomyocytes treated with a PI3K inhibitor (left) or PI3K activator (right). Relative change in force generation between iWT (black) and G296S (grey) cardiomyocytes after inhibition (circle) or activation (triangle) of P13K signaling. Traction force microscopy (TFM) measurements of CMs responding accurately to 1 Hz pacing. Data are mean±sem, *,p<0.05, **,p<0.005, ***p<0.0005 (Mann-Whitney test).
FIG. 94 is a schematic illustrating the postulated protein-protein interaction in wild-type (top) and G296S mutant (bottom) cardiomyocytes. Beat rate measurements between iWT (black) and G296S (grey) cardiomyocytes after inhibition (circle) or activation (triangle) of P13K signaling. TFM measurements of cardiomyocytes responding accurately to 1 Hz pacing. Data are mean±sem, *,p<0.05, ** p<0.005, ***p⋅<0.0005 (Mann-Whitney test).
A “scale-free” network (Barabasl and Albert, ⋅1999) of 716 nodes connected by 2,353 edges with an average 6.6 neighbors and path length of 4.3 (FIG. 90). Nodes were connected by edges representing physical (protein-protein) or functional (genetic, co-expression, co-occurrence) interactions. At least 5 sub-networks connected through 20 regulatory “hubs” were identified. […]

[1] = system: hiPS cell-derived cardiomyocytes; assay: Calcium flux measurements of hiPS cell-derived cardiomyocytes; format: cell-based, human; conditions: isoproterenol followed by carbachol, FIG. 17
From the text: A step-wise differentiation protocol was used to generate purified cardiomyocytes from the above-described iPS cell lines (FIG. 12) (Lian et al, 2012; Tohyama et al.,2013). […] The iPS cardiomyocytes spontaneously contracted, expressed high levels of sarcomeric and myofibril markers, and had membrane electrophysiology and gene expressions similar to human cardiomyocytes; 30% were binucleated (FIGS. 15 and 16). […] The protocol thus generated functional human cardiomyocytes suitable for deeper interrogation of cell identity and function.

| SMILES | beat rates (iWT cardiomyocytes) | calcium flux response [1] |
| --- | --- | --- |
| O=c1cc(N2CCOCC2)oc2c(-c3ccccc3)cccc12 [LY294002] | no effect | – |
| C[N+](C)(C)CCOC(N)=O [carbachol] | – | expected response |
| CC(C)NCC(O)c1ccc(O)c(O)c1 (stereo not drawn) [isoproterenol] | – | expected response |
